The results in this text go back to US20010055590A1, “Method for enhancing myoblast migration and invasion in the context of gene therapy” (priority 1999, published 2001).

Common to all, as to type: cell-based
The subject of one experiment is MMP-1. Nature of the experiment: Gelatin zymography of mouse myoblast culture medium, MMP-1. Particulars: mouse myoblasts. The protocol: (§1) Gelatin zymography for assaying MMPs was carried out as previously described (Guerin and Holland “Synthesis and secretion of matrix-degrading metalloproteinases by human skeletal muscle satellite cells” Devel. Dynamics 202:91-99,1995) with minor modifications. Briefly, myoblasts were grown in 6 cm tissue culture plates to approximately 70% confluence, then rinsed three times with serumfree DMEM and incubated for 3 hours in DMEM containing 0.2% BSA to eliminate the effects of serum. Growth factors were added and cells were incubated for 24 hours. Culture medium was then collected, centrifuged to pellet detached cells, and concentrated ten-to twenty-fold using the Centricon-10 (Amicon, Beverly, Mass.) system. The protein concentration of the supernatants was determined using the Bio-Rad protein microassay system with BSA used as the standard. Samples were stored at −70° C. until use. For gelatin zymography, aliquots (10 μg as the total protein per sample) were electrophoresed at constant voltage on a 10% polyacrylamide gel containing 2 mg/ml gelatin. […] Proteinase activity was quantified by densitometric scanning of bands using a Bio-Rad Gel Doc 1000 video camera imaging system (Bio Rad, Hercules, Calif.). […]

For a further experiment, the system named is human myoblasts. Nature of the experiment: In vitro human myoblast invasion of Matrigel. The note with it: 24 hour time point. Here is the method:
Mouse myoblasts were previously isolated from hind limb muscles of 4-6 week old severe combined immunodeficient (SCID) mice and clonally purified from contaminating fibroblasts (Yao et al. “Primary myoblast-mediated gene: transfer: persistent expression of human factor IX in mice” Gene Therapy 1:99-107, 1994). Myoblasts (approximately 1×10^6 cells) were plated on 6 cm tissue culture plates coated with 0.5% gelatin (Sigma, St. Louis, Mo.) and grown in growth medium consisting of Dulbecco's Modified Eagle Medium (DMEM) (Gibco BRL, Gaithersburg Md.) supplemented with 20% fetal bovine serum (FBS; Gibco) and 0.5% chick embryo extract (CEE; Gibco). All animal studies were carried out following the institutional guidelines for ethical animal use. Human myoblasts were isolated using trypsin digestion from abdominal wall or chest wall muscle biopsies, and surgery. […] Myoblast migration and invasion were examined using a commercially available in vitro cell migration and invasion assay kit (Biocoat, Becton Dickinson, Franklin Lakes, N.J.) as described by Albini et al. (A rapid in vitro assay for quantitating the invasive potential of tumor cells Cancer Res 47:3239-3245, 1987). […] The number of cells per field was counted in 10 randomly selected fields and averaged for each condition. […]

In a further experiment the test system is MMP-2. Nature of the experiment: Gelatin zymography of human myoblasts, MMP-2. The protocol: as §1

On to human serum fibronectin, for which the “MMP-1 expression (57 kDa)” value in the experiment on MMP-1 was “does not significantly affect”. For the same substance, in the experiment with human myoblasts, the “stimulation of human myoblast invasion of Matrigel over the BSA control” value is 2.3 fold. The MMP-2 activation result in the experiment on MMP-2 is “significant increase in MMP-2 activation”.
